From the OligoGym collection
Where “and” joins values, the source holds several entries; their conditions need not be identical. Equal entries are not always repeated. After the bases stand the sugars from the 5' end (letter, count) and the backbone: PS all phosphorothioate, else s phosphorothioate and o phosphodiester by linkage. Methylation of C is not given here. e = 2'-O-(2-methoxyethyl) (MOE); k = constrained ethyl (cEt); d = 2'-deoxy (DNA)

Biological target: IRF4
Conditions: ASO

Row | Sequence | target mRNA inhibition (MM.1R, 1 µM) | target mRNA inhibition (SK-MEL-28, 4 µM) | further results
1 | GCAGTGATGTCAGGTT (sugars kddddddddddkekek, PS) | 36% | – | –
2 | TACTGCTTGAGGTTTT (sugars e1 k2 d9 k2 e2, PS) | 6% | – | –
3 | AGTTAAGGTGCCTCAA (sugars k3 d10 k3, PS) | – | -1% | –
4 | GGGTAAGCACTGAGGC (sugars k3 d10 k3, PS) | – | 61% | –
5 | GGAGATCCGGCAGCCC (sugars k3 d10 k3, PS) | – | 23% | –
6 | CTTGATAAAGGCTGAA (sugars k2 d9 e3 k2, PS) | 10% | – | –
7 | TGGACATCTGCGGGTC (sugars k3 d10 k3, PS) | – | 44% | –
8 | TTTCAGGAGCTAGTTT (sugars k3 d10 k3, PS) | 8% | – | –
9 | ACCTCAGTTTGTGAAG (sugars kkdddddddddkekek, PS) | 13% | – | –
10 | GTGTGCTTGCCAAGCC (sugars kddddddddddkekek, PS) | 40% and 23% | – | –
11 | CTGGCATCGAGACGGG (sugars k3 d10 k3, PS) | – | 47% | –
12 | CTCCATCAATCATGAT (sugars k3 d10 k3, PS) | – | 33% | –
13 | ACTGAACCATGTTCCT (sugars k3 d10 k3, PS) | – | 51% | –
14 | AATCAGATGATGTCTA (sugars k4 d8 k4, PS) | – | -13% | –
15 | AATAAGCAGAAACAGC (sugars k3 d10 k3, PS) | – | -1% | –
16 | CGAGCGGTGAAACTGA (sugars k3 d10 k3, PS) | – | 33% | –
17 | ACCTCAGTTTGTGAAG (sugars kkkdddddddddkeke, PS) | 8% | – | –
18 | TAAGATCCCACGAAGG (sugars k3 d10 k3, PS) | 9% | – | –
19 | ATGCAAGCCCGTTAAT (sugars k3 d10 k3, PS) | – | 4% | –
20 | GGCAAGTTCTGCTGTC (sugars k3 d10 k3, PS) | – | 58% | –
21 | TCTAACCCTAATCCTA (sugars k3 d10 k3, PS) | – | 5% | –
22 | GGTCTGAGTTGTACAG (sugars k3 d10 k3, PS) | 20% | – | –
23 | TTGCTTTGCAGAGCAA (sugars k3 d10 k3, PS) | – | 28% | –
24 | CATTTTATCATCCGAA (sugars k3 d10 k3, PS) | – | 55% | –
25 | TCTGAGTAGACTTCTT (sugars k3 d10 k3, PS) | 14% | – | –
26 | CTGAAAGCGAGTCAGA (sugars k3 d10 k3, PS) | 6% | – | –

Row | Sequence | target mRNA inhibition (MM.1R, 1 µM) | target mRNA inhibition (SK-MEL-28, 4 µM) | further results
27 | TCTGAGTGAGCTTGCC (sugars k3 d10 k3, PS) | – | 49% | –
28 | GCTGTCGATCTGGTCG (sugars k3 d10 k3, PS) | – | 9% | –
29 | AGCTTGATAAAGGCTG (sugars kddddddddddkekek, PS) | 1% | – | –
30 | GTGATGTCAGGTTTTC (sugars k2 d9 e3 k2, PS) | 38% | – | –
31 | AGCCATCGGCAGCTGA (sugars k3 d10 k3, PS) | – | 14% | –
32 | AGGCACATCAATGTTT (sugars k3 d10 k3, PS) | – | 51% | –
33 | TGGCCTTCCTGGCGGA (sugars k3 d10 k3, PS) | – | 9% | –
34 | ACTGCTTGAGGTTTTC (sugars kkddddddddddkeke, PS) | 21% | – | –
35 | TCCTAACCCTGAGTAT (sugars k3 d10 k3, PS) | – | 27% | –
36 | AATCTTCTGGATTGCT (sugars k3 d10 k3, PS) | 14% | – | –
37 | GGAGAAGTCCCGTGGA (sugars k3 d10 k3, PS) | – | 59% | –
38 | GAACACACCACTATTC (sugars k3 d10 k3, PS) | -20% | – | –
39 | ACGCAGTGCACCTGTG (sugars k3 d10 k3, PS) | – | -7% | –
40 | CAGGTTTCATTTCATT (sugars k3 d10 k3, PS) | – | 60% | target mRNA inhibition (MM.1R, 0.074 µM): -1%; target mRNA inhibition (MM.1R, 0.222 µM): 13%; target mRNA inhibition (MM.1R, 0.666 µM): 10%; target mRNA inhibition (MM.1R, 2 µM): 39%; target mRNA inhibition (SK-MEL-28, 0.185 µM): 15%; target mRNA inhibition (SK-MEL-28, 5 µM): 71%; target mRNA inhibition (SK-MEL-28, 15 µM): 91%
41 | CTGTTACCGATGCTTC (sugars kddddddddddkekek, PS) | 36% and 26% | – | –
42 | TGTAGTATGAGAAACG (sugars kkdddddddddkekek, PS) | 12% | – | –
43 | GGAAGCACTGGCATTG (sugars k3 d10 k3, PS) | – | 49% | –
44 | AGCTAGAACATGATGA (sugars k3 d10 k3, PS) | – | 5% | –
45 | CTAAAGAATGAGGGTC (sugars k3 d10 k3, PS) | – | 62% | –
46 | GAAGCATTTTATCATC (sugars kkkdddddddddkeke, PS) | 8% | – | –
47 | TTGGCCTGCCGGCCTG (sugars k3 d10 k3, PS) | – | 4% | –
48 | ACTTTTAGAGAGGAGA (sugars kkdddddddddkdkdk, PS) | 34% | – | –
49 | CGTTCTCCCACACCAG (sugars k4 d8 k4, PS) | – | -1% | –
50 | TCAAAGTCATTGCTCT (sugars k4 d8 k4, PS) | – | 57% | target mRNA inhibition (MM.1R, 0.074 µM): -3%; target mRNA inhibition (MM.1R, 0.222 µM): 6%; target mRNA inhibition (MM.1R, 0.666 µM): 6%; target mRNA inhibition (MM.1R, 2 µM): 13%; target mRNA inhibition (SK-MEL-28, 0.185 µM): 4% and -4% and 0%
51 | TACTGTTACCGATGCT (sugars kkdddddddddekeke, PS) | 22% and 14% | – | –
52 | AGTATGAGAAACGGCC (sugars e1 k2 d9 k2 e2, PS) | 12% | – | –

Row | Sequence | target mRNA inhibition (MM.1R, 1 µM) | target mRNA inhibition (SK-MEL-28, 4 µM) | further results
53 | ACTTATAGCACTCTCC (sugars k3 d10 k3, PS) | 1% | – | –
54 | TGCCATGGACAAGTTT (sugars k3 d10 k3, PS) | -18% | – | –
55 | AGTGTCTAAAGTCCCA (sugars kkddddddddddkeke, PS) | 32% and 39% | – | –
56 | CCGCAATTCTCCTCAA (sugars k3 d10 k3, PS) | – | 20% | –
57 | ATTATATACTGGTTGG (sugars k2 d9 e3 k2, PS) | 37% | – | –
58 | AAAGAATGGCGCATAG (sugars k3 d10 k3, PS) | 10% | – | –
59 | GGTGTGTAAGGTCTGA (sugars k3 d10 k3, PS) | – | 41% | –
60 | GGTAATCTTCTGGATT (sugars k3 d10 k3, PS) | – | 30% | –
61 | GGCGCATAGGTCCTTC (sugars k3 d10 k3, PS) | -7% | – | –
62 | AGTTCATGTAAAGTCT (sugars k3 d10 k3, PS) | – | 56% and 61% | –
63 | AATCACTTGTCTTGGG (sugars k3 d10 k3, PS) | – | 60% | –
64 | AGTGTCTAAAGTCCCA (sugars k2 d9 e3 k2, PS) | 26% and 12% | – | –
65 | AATGTAGGGATACAGC (sugars k3 d10 k3, PS) | – | 62% | –
66 | AATAAAATGTCACGCC (sugars k3 d10 k3, PS) | 20% | – | –
67 | GCCGAGATATAAATAG (sugars k3 d10 k3, PS) | – | 40% | –
68 | AAAAATGTCCCATCCA (sugars k3 d10 k3, PS) | – | 30% | –
69 | TGGGTATTTATAACCG (sugars k3 d10 k3, PS) | 4% | – | –
70 | AGAGTGAGATGCGGAG (sugars k3 d10 k3, PS) | 65% and 63% | – | –
71 | CAGTGATGTCAGGTTT (sugars k3 d9 k3 e1, PS) | 49% | – | –
72 | CCCTTCAGCCACGAGG (sugars k3 d10 k3, PS) | – | 8% | –
73 | GACAAGTGGCGCAGAC (sugars k3 d10 k3, PS) | – | 11% | –
74 | CACATCAATGTTTTAG (sugars k2 d9 e3 k2, PS) | 12% and 11% | – | –
75 | CTTATAGCACTCTCCT (sugars k3 d10 k3, PS) | – | 33% | –
76 | CGCCAGTGACCACGAG (sugars k3 d10 k3, PS) | – | 42% | –
77 | TCCACGCGCGGAGGAC (sugars k3 d10 k3, PS) | -43% | – | –
78 | CAGGTAAGGGCCCCGT (sugars k3 d10 k3, PS) | – | 70% | –

Row | Sequence | target mRNA inhibition (MM.1R, 1 µM) | target mRNA inhibition (SK-MEL-28, 4 µM) | further results
79 | GTGTGTGCACTCGCGC (sugars k3 d10 k3, PS) | 19% | – | –
80 | GTGTCTAAAGTCCCAT (sugars kdddddddddkekeke, PS) | 5% | – | –
81 | TCATGATATTAGAGAC (sugars k3 d10 k3, PS) | – | 35% | –
82 | CATTACGAGAGGGTCT (sugars k3 d10 k3, PS) | – | 44% | –
83 | ACTTTTAGAGAGGAGA (sugars kkkddddddddkekek, PS) | 21% | – | –
84 | TGTTACCGATGCTTCA (sugars k3 d10 k3, PS) | – | 49% | –
85 | AGCCACTGGCGGAGCT (sugars k3 d10 k3, PS) | – | 38% | –
86 | TGTAGTATGAGAAACG (sugars kdddddddddkekeke, PS) | 14% | – | –
87 | AGAAACGAGTTGACAC (sugars k3 d10 k3, PS) | – | 15% | –
88 | TCACGAGGTTGCCGAG (sugars k3 d10 k3, PS) | – | 62% | –
89 | ACGAAGATTCAAAAGG (sugars k3 d10 k3, PS) | – | 36% | –
90 | TGTAGTATGAGAAACG (sugars kkkdddddddddkeke, PS) | 29% | – | –
91 | CTTGGAGAAGTCCCGT (sugars k3 d10 k3, PS) | – | 39% | –
92 | AACTTACAGGACTATT (sugars k3 d10 k3, PS) | – | 13% | –
93 | GGCCTTGGAGCCCAAA (sugars k3 d10 k3, PS) | – | 20% | –
94 | CTGCCAAGTTGAAGAC (sugars k3 d10 k3, PS) | 33% | – | –
95 | CAGTTGTAAATGAGTC (sugars e1 k2 d9 k2 e2, PS) | 55% | – | target mRNA inhibition (MM.1R, 0.074 µM): 12%; target mRNA inhibition (MM.1R, 0.222 µM): 34%; target mRNA inhibition (MM.1R, 0.666 µM): 51%; target mRNA inhibition (MM.1R, 2 µM): 70%
96 | CTCACACACAGGATGT (sugars k3 d10 k3, PS) | – | 18% | –
97 | TACTCACGAGCACCTC (sugars k3 d10 k3, PS) | – | 41% | –
98 | ACTGGGTACATGGCAG (sugars k3 d10 k3, PS) | – | 59% | –
99 | CAGTTTGTGAAGCATC (sugars k3 d10 k3, PS) | – | 78% | –
100 | GACGAACGCGCAAAAC (sugars k3 d10 k3, PS) | 15% | – | –
101 | GAGCTGTGATGAGCTT (sugars k3 d10 k3, PS) | – | 10% | –
102 | TGCTTCAACACACTGT (sugars k3 d10 k3, PS) | – | 3% | –
103 | GACAGCTTCTTTGAAG (sugars k3 d10 k3, PS) | – | 36% | –
